Results as given in patent publication US20240383922A1, “KRAS Modulating Compounds” (Gilead Sciences, Inc., priority 2023, published 2024).
Like-named read-outs stand apart in the source and are kept apart here.

Columns and labels:
[1] = test system: cellular pERK in MIA-PaCa-2 (KRAS-G12C) cell-line; assay: Cell based pERK assay (HTRF), MIA-PaCa-2; conditions: MIA-PaCa-2 (KRAS-G12C) cells, 2 hours incubation, read-out: MIAPaCa2 pERK EC50
Method: (§1) Compounds were tested in a 384-well assay format for their ability to inhibit cellular pERK in Kuramochi (WT KRAS), MIA-PaCa-2 (KRAS-G12C), ASPC-1 (KRAS G12D), and NCI-H441 (KRAS-G12V) cell-lines. Compounds were serially diluted (1:3) in DMSO. On day −1, 80 uL of cells were plated per well in the 384 well tissue-culture plates (Greiner: Cat #781080) to seed 5000 cells per wells of AsPC-1 or 7500 cells of MIA-PaCa-2, NCI-H441, and Kuramochi cell lines in RPMI (Corning: Cat #10-040-CM) with 10% fetal bovine serum (FBS) (HyClone: Cat #SH30071-03) and 1× penicillin-streptomycin-glutamate (PSG) (Corning: Cat #30-009-CI) for […] and Kuramochi cell lines and DMEM (Corning: Cat #15-018-CM) with […] and 1× PSG for MKA-PaCa-2 cell line. The plates were then incubated overnight at 37° C. and 5% CO2. On day 0, 400 nL of compound/well was added into the cell plates and mixed 5 times by pipetting using a Beckmann Biomek FX. The cell plates were then incubated for 2 hours at 37° C. and 5% CO2. HTRF Advanced Phospho-ERK1/2 ([…]) Detection Kits (PerkinElmer: Cat #64AERPEG) were used to prepare the lysis and detection solution according to manufacturer protocol. Following the 2 hour incubation, 70 μL of medium was aspirated from the plates and 10 uL of lysis and detection solution was added to the plates using a Biotek EL406 washer and dispenser. Plates were sealed and stored overnight at room temperature. HTRF ratio (665 nm/615 nm) was read by Envision multimode reader (PerkinElmer) the next day. The TR-FRET ratios were normalized to a positive (saturating concentration of known inhibitor) and negative (DMSO) control and plotted against the log of compound concentration. IC50 values were defined as the compound concentration that causes a […] in normalized signal and were calculated using a sigmoidal dose-response model to generate curve fits.

[2] = test system: cellular pERK in Kuramochi (WT KRAS) cell-line; assay: Cell based pERK assay (HTRF), Kuramochi; conditions: Kuramochi (WT KRAS) cells, 2 hours incubation
Method: as §1

[3] = test system: cellular pERK in ASPC-1 (KRAS G12D) cell-line; assay: Cell based pERK assay (HTRF), ASPC-1; conditions: ASPC-1 (KRAS G12D) cells, 2 hours incubation
Method: as §1

[4] = test system: cellular pERK in NCI-H441 (KRAS-G12V) cell-line; assay: Cell based pERK assay (HTRF), NCI-H441; conditions: NCI-H441 (KRAS-G12V) cells, 2 hours incubation
Method: as §1

| Compound | EC50 ([1]; Homo sapiens) | EC50 [2] | EC50 ([3]; Homo sapiens, ASPC1) | EC50 ([4]; Homo sapiens) | EC50 [1] | EC50 ([3]; read-out: AsPC1 pERK EC50) | EC50 [4] |
| --- | --- | --- | --- | --- | --- | --- | --- |
| C#Cc1c(F)ccc2cccc(-c3nc4c5c(nc(OCC67CCCN6CCC7)nc5c3F)N3CCCOC[C@@H]3CC4)c12 [Example 6-9] | 430 nM | 376 nM | > 1000 nM | 729 nM | – | – | – |
| C#Cc1c(F)ccc2cc(O)cc(-c3nc4c5c(nc(OC[C@@]67CCCN6C[C@H](F)C7)nc5c3F)N3CCCOC[C@@H]3C[C@@H]4F)c12 [Example 6-27] | 17.4 nM | 28.8 nM | 97.1 nM | 58.7 nM | – | – | – |
| C#Cc1c(F)ccc2cc(N)cc(-c3nc4c5c(nc(OC[C@@]67CCCN6[C@H](CF)CC7)nc5c3F)N3CCCOC[C@@H]3CC4)c12 [Example 7-2] | 4.01 nM | 3.44 nM | 25.8 nM | 6.23 nM | – | – | – |
| C#Cc1c(F)ccc2cccc(-c3nc4c5c(nc(OC[C@@]67CCCN6[C@H](CF)CC7)nc5c3F)N3CCCOC[C@@H]3CC4)c12 [Example 6-10] | 280 nM | 289 nM | 706 nM | 460 nM | – | – | – |
| C#Cc1c(F)ccc2cc(O)cc(-c3nc4c5c(nc(OC[C@@]67CCCN6C[C@H](F)C7)nc5c3F)N3CCCCC3(C)CC4)c12 (stereo partly drawn) [Example 13-1, 5-ethynyl-6-fluoro-4-(1-fluoro-11-(((2R,7aS)-2-fluorotetrahydro-11H-pyrrolizin-7a(5H)-yl)methoxy)-5a-methyl-5,5a,6,7,8,9-hexahydro-4H-3,9a,10,12-tetraazabenzo[4,5]cyclohepta[1,2,3-de]naphthalen-2-yl)naphthalen-2-ol] | – | 117 nM | – | – | 319 nM | > 1000 nM | 380 nM |
| C#Cc1c(F)ccc2cc(O)cc(-c3nc4c5c(nc(OC[C@@]67CCCN6C[C@H](F)C7)nc5c3F)N3CC(F)(F)COCC3CC4)c12 (mixture of isomers) [Example 6-17] | 0.7 nM | – | 10.6 nM | 3.71 nM | – | – | – |
| C#Cc1c(F)ccc2cc(O)cc(-c3nc4c5c(nc(OC[C@@]67CCCN6C[C@H](F)C7)nc5c3F)N3CCCOC[C@@H]3CC4)c12 [Example 6-1, 5-ethynyl-6-fluoro-4-((S)-1-fluoro-12-(((2R,7aS)-2-fluorotetrahydro-1H-pyrrolizin-7a(5H)-yl)methoxy)-4,5,5a,6,9,10-hexahydro-8H-7-oxa-3,10a,11,13-tetraazanaphtho[1,8-ab]heptalen-2-yl)naphthalen-2-ol] | 0.11 nM | 1.35 nM | 1.27 nM | 0.42 nM | – | – | – |
| Oc1cc(-c2nc3c4c(nc(OC[C@@]56CCCN5C[C@H](F)C6)nc4c2F)N2CCCOC[C@H]2CC3)c2c(F)c(F)ccc2c1 [Example 6-3] | 28.9 nM | 25.8 nM | 91.9 nM | 48 nM | – | – | – |
| C#Cc1c(F)ccc2cc(O)cc(-c3nc4c5c(nc(OC[C@@]67CCCN6C[C@H](F)C7)nc5c3F)N3CCOCC[C@H]3CCC4)c12 (single isomer, unassigned) [Example 10-1] | 18.4 nM | 8.55 nM | 208 nM | 68.8 nM | – | – | – |
| C#Cc1c(F)ccc2cc(N)cc(-c3nc4c5c(nc(OCC67CCCN6CCC7)nc5c3F)N3CCCOC[C@@H]3CC4)c12 [Example 7-3] | 9.14 nM | 6.12 nM | 118 nM | 20 nM | – | – | – |
| C#Cc1c(F)ccc2cc(O)cc(-c3nc4c5c(nc(OC[C@@]67CCCN6C[C@H](F)C7)nc5c3F)N3CCCOC[C@@H]3C=C4C)c12 [Example 6-18] | 0.28 nM | 1.99 nM | 0.61 nM | 0.56 nM | – | – | – |
| C#Cc1c(F)ccc2cc(O)cc(-c3nc4c5c(nc(OC[C@@]67CCCN6C[C@H](F)C7)nc5c3F)N3CCOCC[C@H]3CC4)c12 (single isomer, unassigned) [Example 9-1] | 15.8 nM | 46.9 nM | 315 nM | 101 nM | – | – | – |
| Cc1c(F)c(N)cc(-c2nc3c4c(nc(OC[C@@]56CCCN5C[C@H](F)C6)nc4c2F)N2CCCOC[C@@H]2CC3)c1C(F)(F)F [Example 7-11] | – | 188 nM | > 1000 nM | 724 nM | – | – | – |
| CCc1c(F)c(F)cc2cc(N)cc(-c3nc4c5c(nc(OCC67CCCN6CCC7)nc5c3F)N3CCCOC[C@@H]3CC4)c12 [Example 8-4] | – | 128 nM | > 1000 nM | > 1000 nM | – | – | – |
| C#Cc1c(F)ccc2cc(N)cc(-c3nc4c5c(nc(OC[C@@]67CCCN6C[C@H](F)C7)nc5c3F)N3CCCOC[C@@H]3C=C4C)c12 [Example 7-7] | 1.97 nM | – | 8.61 nM | 4.01 nM | – | – | – |

Next, values leading:

| EC50 ([1]; Homo sapiens) | EC50 [2] | EC50 ([3]; Homo sapiens, ASPC1) | EC50 ([4]; Homo sapiens) | EC50 [1] | EC50 ([3]; read-out: AsPC1 pERK EC50) | EC50 [4] | Compound |
| --- | --- | --- | --- | --- | --- | --- | --- |
| – | 517 nM | – | – | > 1000 nM | > 1000 nM | > 1000 nM | CCc1c(F)ccc2cc(O)cc(-c3nc4c5c(nc(OC[C@@]67CCCN6C[C@H](F)C7)nc5c3F)N3CCCCC3(C)CC4)c12 (stereo partly drawn) [Example 14-1, 5-ethyl-6-fluoro-4-(1-fluoro-11-(((2R,7aS)-2-fluorotetrahydro-1H-pyrrolizin-7a(5H)-yl)methoxy)-5a-methyl-5,5a,6,7,8,9-hexahydro-4H-3,9a,10,12-tetraazabenzo[4,5]cyclohepta[1,2,3-de]naphthalen-2-yl)naphthalen-2-ol] |
| 0.87 nM | 1.37 nM | 5.33 nM | 1.67 nM | – | – | – | C#Cc1c(F)c(F)cc2cc(N)cc(-c3nc4c5c(nc(OC[C@@]67CCCN6C/C(=C\F)C7)nc5c3F)N3CCCOC[C@@H]3CC4)c12 [Example 23-2] |
| – | > 1000 nM | – | – | – | > 1000 nM | > 1000 nM | C#Cc1c(F)ccc2cc(N)cc(-c3c(F)c4c5c(nc(OC[C@@]67CCCN6C[C@H](F)C7)nc5c3F)N3CCCOC[C@@H]3CC4)c12 (atropisomer, axis not shown) [Example 25-1, 4-((11S,14aS)-10,12-difluoro-8-(((2R,7aS)-2-fluorotetrahydro-1H-pyrrolizin-7a(5H)-yl)methoxy)-1,4,5,13,14,14a-hexahydro-3H-[1,4]oxazepino[4′,3′:1,7]azepino[2,3,4-de]quinazolin-11-yl)-5-ethynyl-6-fluoronaphthalen-2-amine] |
| 8.73 nM | 6.34 nM | 42.5 nM | 42.3 nM | – | – | – | C#Cc1c(F)ccc2cc(O)cc(-c3nc4c5c(nc(OC[C@@]67CCCN6C[C@H](F)C7)nc5c3F)N3CCCCC[C@@H]3CC4)c12 [Example 20-1, 5-ethynyl-6-fluoro-4-((R)-1-fluoro-12-(((2R,7aS)-2-fluorotetrahydro-1H-pyrrolizin-7a(5H)-yl)methoxy)-4,5,5a,6,7,8,9,10-octahydro-3,10a,11,13-tetraazanaphtho[1,8-ab]heptalen-2-yl)naphthalen-2-ol] |
| 70 nM | 79.7 nM | 128 nM | 212 nM | – | – | – | C#Cc1c(F)ccc2cc(O)cc(-c3nc4c5c(nc(OC[C@@]67CCCN6C[C@H](F)C7)nc5c3F)N3CCCOCC3C[C@@H]4O)c12 (some centres unmarked) [Example 22-5] |
| – | – | – | – | – | 67.2 nM | 92 nM | C#Cc1c(F)ccc2cc(N)cc(-c3c(F)c4c5c(nc(OC[C@@]67CCCN6C[C@H](F)C7)nc5c3F)N3CCCOC[C@@H]3CC4)c12 (single isomer, unassigned) [Example 25-2] |
| – | 4.1 nM | 78 nM | 57 nM | – | – | – | C#Cc1c(F)ccc2cc(N)cc(-c3nc4c5c(nc(OC[C@@]67CCCN6[C@H](COC(=O)N(C)C)CC7)nc5c3F)N3CCCOC[C@@H]3CC4)c12 [Example 23-4] |
